From US5472951A, “Stabilizer for phospholipid vesicles” (Chiba Flour Milling Co., Ltd., priority 1992, dated 1995)
Each block holds one compound with its values, some of them ahead of it.

What was measured:
Assay type in all cases: physicochemical
[1] = turbidity increase, standing at 4 °C for 24 hours; details: for turbidity increase rate relative to unmodified DPPC vesicle dispersion (100%): Table 3 / Example 11 series
[2] = particle diameter of modified vesicles
[3] = introduction ratio into the vesicle (phenol-sulfuric acid method); details: 2 mol % modifier; for introduction ratio: 4 °C, 24 hours
Description: (§1) The ratio of introduction of the stabilizer into the vesicles is determined by treating the dispersion of the vesicles by gel filtration or ultracentrifuge to remove the superfluous stabilizer which has not been introduced into the vesicles, and quantitatively determining saccharide in respective fractions by a phenol-sulfuric acid method. The stabilizer of the present invention, when employed in an amount of from 2 to 10 mol %, is introduced into the vesicles in a ratio of 90% or more.
The stability of the vesicle dispersion which had been passed through the 0.05 μm filter was evaluated by measuring the change of absorbance (turbidity) at 500 nm with time on standing at room temperature by means of a UV-visible light spectrophotometer.
2.4 mg of DOMG prepared in the same manner as in Example 11 was dissolved in 1 ml of chloroform. This solution was mixed with a solution of 100 mg of DPPC in 5 ml of chloroform, thereby DOMG being 2 mol % of DPPC. The solution mixture was evaporated by means of an evaporator to form a thin film on the inside wall of an eggplant-shape flask. Then 10 ml of pure water was added thereto so as to obtain a concentration of 1.0% by weight of the vesicles. The mixture was stirred with glass beads by means of a vortex mixer, and subsequently treated by an extruder to prepare a dispersion of DOMG-modified DPPC vesicles having controlled diameters of particles. A portion of the resulting dispersion was diluted to a fivefold volume with pure water to prepare a dispersion having vesicle concentration of 0.2% by weight.
The two dispersions of the DOMG-modified vesicles having concentrations of 1.0% by weight and 0.2% by weight were left standing at 4° C. for 24 hours, and were ultracentrifuged (300000 G, 60 minutes). The free DOMG in the supernatant was determined by a phenol-sulfuric acid method, and therefrom the ratio of introduction DOMG to the vesicles was calculated.
As the results, the introduction ratios were 94.3%, and 77.0% respectively at the vesicle concentrations of 1.0% by weight and 0.2% by weight. The results are shown in Table 4 together with the results of Comparative Examples 6 and 7 described later in which an oligosaccharide derivative was employed.

[4] = introduction ratio into mixed lipid vesicles; details: dimyristoyl phosphatidylcholine:cholesterol:myristic acid:LPMS 7:7:2:0.3
Description: as §1
The effect of the LPMS of the present invention on stabilization of vesicles was evaluated as follows. A powdery lipid mixture containing LPMS was prepared from dimyristoyl phosphatidylcholine, cholesterol, myristic acid, and LPMS (in molar ratio of 7:7:2:0.3) was prepared by freeze-drying. 100 ml of saline was added to 10 g of the above powdery lipid mixture, and the mixture was stirred at 4° C. for 24 hours to prepare a liquid dispersion. […] The introduction ratio of the LPMS was 85% according to saccharide determination of the supernatant liquid after centrifugation.
500 mg of a powdery lipid mixture containing MPDSG of the present invention was prepared from DPPC, cholesterol, distearyl phosphatidic acid, and MPDSG (in molar ratio of 10:9:0.9:0.5) was prepared by freeze-drying from benzene. […]

[5] = aggregation on addition of dextran: turbidity at 800 nm
Description: The precipitation of the vesicles was dispersed again to be 5 wt %, and thereto dextran (molecular weight of 40000) was added as a colloid osmotic pressure controller. The stability of the dispersion was observed by determination of turbidity at 800 nm.
The stability of the MPDSPE-modified vesicle was evaluated by adding, to the above dispersion, dextran (molecular weight: 4000) which is a colloid osmotic pressure controller, and measuring the turbidity from the absorbance at 800 nm. […] This proves the aggregation inhibition effect of the MPDSPE of the vesicle stabilizer of the present invention.
The resulting dispersion was treated with a microfluidizer at 2500 psi at 4° C. for 15 minutes to obtain a dispersion of SDSPE-modified vesicles having average particle diameter of 350±95 nm. This dispersion was centrifuged (100000 G, 30 minutes) to obtain a precipitate of vesicles. The precipitate was dispersed again into a solution to be 5% by weight. Occurrence of aggregation of the vesicles was tested by adding dextran (molecular weight 40000) to the dispersion and measuring the turbidity change at 800 nm. […] Therefrom the modification was confirmed to be effective to inhibition of aggregation caused by dextran.
5.0 g of a powdery lipid mixture containing the above STEC (DPPC:cholesterol:stearic acid:STEC=7:7:2:2 in molar ratio) was dispersed in 100 ml of saline, and the dispersion was stirred at 4° C. for 24 hours. The resulting dispersion was treated with a microfluidizer at 2500 psi at 4° C. for 15 minutes. This dispersion was centrifuged (10000 G, 30 minutes) to obtain precipitate of STEC-modified vesicles. The precipitate was dispersed again in to saline to be 5 wt %. The stability of the vesicles was evaluated by adding 2.5 wt % solution of dextran (molecular weight 40000) to the above vesicle layer and measuring the turbidity change at 800 nm. The STEC-modified vesicles caused the turbidity increase of 58% of that of the unmodified vesicles (DPPC:cholesterol:stearic acid=7:7:2 in molar ratio), thereby the inhibition effect of STEC, a vesicle stabilizer of the present invention being confirmed.

[6] = turbidity increase of copolymerized vesicle dispersion, 4 °C for 24 hours; details: before fivefold dilution
[7] = introduction ratio of ODM into DODPC vesicles
Description: Polymerizable 2,4-octadecadienyl-0-α(β)-maltose (hereinafter referred to as "ODM") was prepared from maltose and 2,4-octadecadienol according to the method shown in Example 11. A solution of 2.0 mg of this ODM in 1 ml of chloroform was mixed with a solution of 200 mg of di(2,4-octadecadienoyl)phosphatidylcholine (hereinafter referred to as "DODPC") as a polymerizable lipid in 5 ml of chloroform. The mixture was evaporated by a rotary evaporator to form a thin film on a wall of an eggplant-shape flask. 20 ml of pure water was added thereto, and agitated with glass beads by a vortex mixer. The resulting ODM-modified vesicle dispersion was treated by an extruder to prepare a dispersion of nearly uniform particle diameters. The vesicle dispersion was irradiated with γ-ray to copolymerize the ODM and the polymerizable lipid, DODPC. A portion of the irradiated dispersion was diluted fivefold with pure water and was left standing at 4° C. for 24 hours. The introduction ratio of ODM was measured by centrifuging the diluted and undiluted dispersions (300000 G, 60 minutes) respectively and determining the ODM in the supernatant by a phenol-sulfuric acid method.

[8] = dispersion stability: turbidity increase at 500 nm, standing at 25 °C for 3 days
[9] = mixed lipid vesicles, microfluidizer

- increase of the turbidity depending on amount of modifier (order) ([1]; 5-20 mol %): 5 mol %>10 mol %>15 mol %>20
- vesicle stabilization effect (in words) ([1]; 5 mol % modifier, 24 hours): not so effective
- turbidity increase rate relative to unmodified DPPC vesicle dispersion (100%) ([1]; 5 mol % modifier, 24 hours): 45.5%
- turbidity increase rate relative to unmodified DPPC vesicle dispersion (100%) ([1]; 10 mol % modifier, 24 hours): 28.9%
- turbidity increase rate relative to unmodified DPPC vesicle dispersion (100%) ([1]; 15 mol % modifier, 24 hours): 16.0%
- turbidity increase rate relative to unmodified DPPC vesicle dispersion (100%) ([1]; 20 mol % modifier, 24 hours): 11.2%
- particle diameter ([2]; DPPC vesicle, about 5 mol % modifier, extruder 0.05 μm (Example 11)): 35±15 nm
- introduction ratio ([3]; vesicle concentration 0.2 wt %): 77.0%
- introduction ratio ([3]; vesicle concentration 1.0 wt %): 94.3%
Compound: CCCCCCCCCCCCCCCCCCOCC(COC1O[C@H](CO)[C@@H](O[C@H]2O[C@H](CO)[C@@H](O)[C@H](O)[C@H]2O)[C@H](O)[C@H]1O)OCCCCCCCCCCCCCCCCCC (stereo partly drawn) [DOMG, 1,2-di-octadecyl-O-α(β)-maltosyl-glycerol]

- average diameter [2, 9]: 320±115 nm
- turbidity change on addition of dextran (in words) [5]: did not show turbidity rise
Compound: CCCCCCCCCCCCCCCCCC(=O)OCC(COP(=O)(O)OCCNC(=O)[C@H](O)[C@@H](O)[C@H](O[C@H]1O[C@H](CO)[C@@H](O[C@H]2O[C@H](CO)[C@@H](O[C@H]3O[C@H](CO)[C@@H](O[C@H]4O[C@H](CO)[C@@H](O)[C@H](O)[C@H]4O)[C@H](O)[C@H]3O)[C@H](O)[C@H]2O)[C@H](O)[C@H]1O)[C@H](O)CO)OC(=O)CCCCCCCCCCCCCCCCC (stereo partly drawn) [MPDSPE, Maltopentaose distearoyl phosphatidyl ethanolamide]

- turbidity increase rate relative to unmodified DPPC vesicle dispersion (100%) ([1]; 5 mol % modifier, 24 hours): 13.5%
- turbidity increase rate relative to unmodified DPPC vesicle dispersion (100%) ([8]; Table 1 / Example 5 series, about 5 mol % modifier): 12.7%
- turbidity increase rate relative to unmodified DPPC vesicle dispersion (100%) ([8]; Table 2 / Example 8 series, 5 mol % modifier): 11.2%
- average particle diameter ([2]; DPPC vesicle, 5 mol % modifier (Example 8 series)): 34±12 nm
- average diameter ([2]; DPPC vesicle, about 5 mol % modifier, ultrasonicator (Example 5 series)): 34±12 nm
- introduction ratio in comparison with DOMG (in words) [3]: low in comparison with that of DOMG
- introduction ratio ([3]; vesicle concentration 0.2 wt %): 48.5%
- introduction ratio ([3]; vesicle concentration 1.0 wt %): 75.8%
Compound: Maltopentaose monopalmitate [MPMP, reference compound]

The remaining lines, values behind:

Compound: CCCCCCCCCCCCCCCCCCOC1O[C@H](CO)[C@@H](O)[C@H](O[C@@H]2O[C@H](CO)[C@@H](O)[C@H](O[C@@H]3O[C@H](CO)[C@@H](O)[C@H](O[C@@H]4O[C@H](CO)[C@@H](O)[C@H](O[C@@H]5O[C@H](CO)[C@@H](O)[C@H](O)[C@H]5O)[C@H]4O)[C@H]3O)[C@H]2O)[C@H]1O (stereo partly drawn) [LPMS, laminaripentaose monostearyl ether]
- introduction ratio [4]: 85%
- average diameter [2, 9]: 300±130 nm
- turbidity change on addition of dextran (in words) [5]: did not give turbidity increase

Compound: CCCCCCCCCCCCCC=CC=CCOC1O[C@H](CO)[C@@H](O[C@H]2O[C@H](CO)[C@@H](O)[C@H](O)[C@H]2O)[C@H](O)[C@H]1O (stereo partly drawn) [ODM, 2,4-octadecadienyl-0-α(β)-maltose]
- turbidity increase relative to unmodified vesicles [6]: 10.9%
- introduction ratio of ODM ([7]; copolymerized by γ-ray, both diluted (fivefold) and undiluted dispersions): 94.2%
- introduction ratio of ODM ([7]; not copolymerized, after fivefold dilution): 66.9%
- introduction ratio of ODM ([7]; not copolymerized, before fivefold dilution): 93.8%

Compound: CCCCCCCCCCCCCCCCCC(=O)OCC(COP(=O)(O)OCCNC(=O)[C@H](O)[C@@H](O)[C@H](O[C@@H]1O[C@H](CO)[C@@H](O)[C@H](O)[C@H]1O)[C@H](O)CO)OC(=O)CCCCCCCCCCCCCCCCC (stereo partly drawn) [SDSPE, cellobiose distearoylphosphatidyl ethanolamine]
- average diameter [2, 9]: 350±95 nm
- turbidity change on addition of dextran (in words) [5]: little rise of turbidity

Compound: CC(C)CCC[C@@H](C)[C@H]1CC[C@H]2[C@@H]3CC=C4C[C@@H](OCCOCCOCCOCCOC5O[C@H](CO)[C@@H](O[C@@H]6O[C@H](CO)[C@@H](O)[C@H](O)[C@H]6O)[C@H](O)[C@H]5O)CC[C@]4(C)[C@H]3CC[C@]12C (stereo partly drawn) [STEC, cellobiosyl tetraethyleneglycosyl cholesterol]
- turbidity increase on dextran addition relative to unmodified vesicles ([5]; 2.5 wt % dextran (MW 40000), DPPC:cholesterol:stearic acid:STEC 7:7:2:2): 58%

Compound: Dioctadecylmaltopentaosyl glycerol [DOMPG]
- turbidity increase rate relative to unmodified DPPC vesicle dispersion (100%) ([1]; 5 mol % modifier, 24 hours): 12.1%
- introduction ratio in comparison with DOMG (in words) [3]: low in comparison with that of DOMG
- introduction ratio ([3]; vesicle concentration 0.2 wt %): 70.9%
- introduction ratio ([3]; vesicle concentration 1.0 wt %): 83.2%
